Laboratory results as given in patent US20140066469A1, “TREATMENT OF DISEASES ASSOCIATED WITH INFLAMMATION” (Department of Veterans Affairs, priority 2012, published 2014).
Like-named read-outs stand apart in the source and are kept apart here.

Assays:
[1] = test system: inflammatory cytokines in OA synovium; assay: Multiplex cytokine analysis of synovium from DMM joints; type: in vivo, C57BL6 (B6) mice; conditions: HCQ sulfate 100 mg/kg/day or atorvastatin calcium 40 mg/kg/day, 3 months; vs vehicle
Description: FIG. 14. […] 3 months after surgery, the mice were sacrificed and the synovium of the operated joint isolated. The collected synovial membrane tissues were used to generate protein lysates, on which multiplex cytokine analysis was performed using the Luminex System and the Bio-Rad BioPlex 23plex mouse cytokine detection kit. Each sample was run in triplicate. […] (A) Heatmap presenting the relative levels (as compared to mean levels in the vehicle-control treated group). (B) Bar-graph display of mean cytokine levels for the indicated treatment groups.
After 3 months, mice were sacrificed, their joints harvested, and synovial tissue isolated from the joint by microdissection. The synovial tissues were homogenized and centrifuged, and the resulting supernatants were assayed for levels of inflammatory cytokines by using a multiplex bead-based cytokine assay (BioRad Laboratories, Hercules, Calif.).

[2] = oral; cited from earlier work
[3] = test system: retinal ganglion cell layer (GCL)
From the text: After 3 months, mice were sacrificed, and their eyes were carefully isolated by microdissection. The eyes were fixed in formalin and sectioned to allow visualization of the retina.

[4] = Patient case example, LDL cholesterol (Example 14); type: in vivo, humans; conditions: person, baseline 140 mg/dL, over several months
[5] = cited from earlier work
[6] = currently FDA-approved doses; cited from earlier work
non-erosive OA = conditions: general non-erosive human OA; cited from earlier work
retina = conditions: cited from earlier work; for ophthalmoscopically visualized loss of retinal pigmented epithelium (eye toxicity): treated humans after 5 years
[7] = test system: osteoarthritis (OA) induced by destabilization of the medial meniscus (DMM); assay: DMM mouse model of OA, histological scoring of stifle joints; type: in vivo, C57BL6 (B6) mice; conditions: Example 1; HCQ sulfate 100 mg/kg/day and/or atorvastatin calcium 40 mg/kg/day, oral gavage, 12 weeks; t test
Description: Experiments were performed under protocols approved by the Stanford University Committee of Animal Research and in accordance with NIH guidelines.

[8] = coadministered with HCQ vs methotrexate alone

Structure (SMILES): CC(C)c1c(C(=O)Nc2ccccc2)c(-c2ccccc2)c(-c2ccc(F)cc2)n1CC[C@@H](O)C[C@@H](O)CC(=O)O [Atorvastatin, atorvastatin]
- levels of inflammatory cytokines in OA synovium [1]: lower
- systemic availability for HMG-CoA reductase activity [2]: approximately 30%
- number of nuclei in the GCL (viable retinal ganglion cells) ([3]; 3 months, vs vehicle, two-tailed t test): did not differ
- disarrangement of the GCL ([3]; HCQ sulfate 100 mg/kg/day and/or atorvastatin calcium 40 mg/kg/day, 3 months): no disarrangement
- LDL cholesterol [4]: 115 mg/day

Structure (SMILES): CCN(CCO)CCCC(C)Nc1ccnc2cc(Cl)ccc12 (centres unmarked) [HCQ, hydroxychloroquine]
- levels of inflammatory cytokines in OA synovium [1]: lower
- number of nuclei in the GCL (viable retinal ganglion cells) ([3]; mouse, in vivo): significantly lower
- AUC of HCQ ([5]; between dosing occasions): no significant difference
- Oral Bioavailability [6]: 89%
- T1/2 [6]: 41 days
- Tmax [6]: 2 to 3 h
- Vd [6]: 605 L
- disease-modifying or pain-reducing activity (non-erosive OA): failed to demonstrate
- retinal toxicity (retina; after 5-7 years of use): ~1%
- prevalence of retinal toxicity (retina; conventional doses of HCQ (400 mg/day common)): 6.8 users per 1,000
- clinically apparent eye toxicity (retina; patients): less than 1%
- ophthalmoscopically visualized loss of retinal pigmented epithelium (eye toxicity) (retina): 1%
- physician discontinuation for earlier eye problems (retina; treated patients over 5 years): ~7%
- Osteophyte score (osteophyte formation) [7]: not as potent
- Synovitis score [7]: not as potent

Structure (SMILES): CCN(CC)CCCC(C)Nc1ccnc2cc(Cl)ccc12 (centres unmarked) [chloroquine]
- ophthalmoscopically visualized loss of retinal pigmented epithelium (eye toxicity) (retina): considerably higher

Structure (SMILES): CN(Cc1cnc2nc(N)nc(N)c2n1)c1ccc(C(=O)N[C@@H](CCC(=O)O)C(=O)O)cc1 [methotrexate]
- maximum methotrexate concentration (Cmax) [5, 8]: decreased
- mean area under the concentration-time curve (AUC) for methotrexate [5, 8]: increased
